The values that follow are results of earlier work, collected in PMC9880028 (Drug Design, Development and Therapy, 2023).

pIC50: −log10 of the molar value.

The subject of this data set is WNK1. To be noted: read-out: IC50 (WNK1); only WNK1 inhibitor published when the screen was conducted; ref US Patent application US 2008/0286809 A1, Dario Alessi.

By pIC50 is commonly meant the IC50 on a negative log10 scale, so that one unit is a factor of ten. With `Cc1cc(O)c2c(=O)c3c(O)cc(O)c4c5c(O)cc(O)c6c(=O)c7c(O)cc(C)c8c1c2c(c34)c(c78)c65` [hypericin], the pIC50 is 3.70.
